Experimental findings from patent US7802989B2, “Ozone tray” (CurOzone Ireland Ltd., priority 2000, dated 2010) are described below.

This assay deals with white spots. Kind of assay: Ozone applied through tray over teeth and gums with in situ orthodontic bands; teeth examined for white spots. Type of assay: in vivo. Conditions: ozone introduced for up to 2 minutes. The text has this:
The method includes disposing the resilient elastomeric tray over the teeth 124 and orthodontic bands 160 applied thereto.
Ozone introduced into the cavity 136 via the port 150 is provided for a period of time to treat the white spots and sterilize the orthodontic bands 160.
Thereafter, the ozone is evacuated from the cavity 136 via the nozzle 128 and the tray 120 is removed from the arched upper or lower teeth 124.
The tray is disposed over teeth and gums with in situ orthodontic bands and ozone introduced for up to 2 minutes.

As to `O=[O+][O-]` [ozone], the “examination of teeth for white spots after ozone treatment” value is reported as “beneficial results”.
